Experiment [1] deals with MDA-MB-231 cells.
Experiment [2] has as its system PBMC. To be noted: 12.5 µM.

In the case of `CC[C@H](C)[C@H](NC(=O)[C@H](CCCCN)NC(=O)[C@H](CCCCN)NC(=O)[C@H](C)NC(=O)[C@H](CC(C)C)NC(=O)[C@H](C)NC(=O)[C@H](C)NC(=O)[C@H](CC(C)C)NC(=O)[C@H](C)NC(=O)[C@H](CCCCN)NC(=O)[C@H](CC(C)C)NC(=O)[C@H](CC(N)=O)NC(=O)[C@@H](N)Cc1c[nH]cn1)C(=O)N[C@@H](CC(C)C)C(N)=O` [H1], the “Average (percentage cell inhibition), Dmastoparan MDA-MB231 12.5uM” value in experiment [1] was found to be 37.0221%. The “Average (percentage cell inhibition), Mastoparan PBMC” value in experiment [2] is listed as 0.9359%.

As to `CC[C@H](C)[C@H](N)C(=O)N[C@@H](Cc1c[nH]cn1)C(=O)N[C@@H](CC(C)C)C(=O)N[C@@H](CCCCN)C(=O)N[C@@H](C)C(=O)N[C@@H](CC(C)C)C(=O)N[C@@H](C)C(=O)N[C@@H](C)C(=O)N[C@@H](CC(C)C)C(=O)N[C@@H](C)C(=O)N[C@@H](CCCCN)C(=O)N[C@@H](CCCCN)C(=O)N[C@H](C(=O)N[C@@H](CC(C)C)C(N)=O)[C@@H](C)CC` [H2], in experiment [1], the “Average (percentage cell inhibition), Dmastoparan MDA-MB231 12.5uM” value was determined as 35.1529%. In experiment [2], the “Average (percentage cell inhibition), Mastoparan PBMC” value is 5.675%.

For `CC[C@H](C)[C@H](N)C(=O)N[C@@H](CC(N)=O)C(=O)N[C@@H](Cc1c[nH]cn1)C(=O)N[C@@H](CCCCN)C(=O)N[C@@H](C)C(=O)N[C@@H](CC(C)C)C(=O)N[C@@H](C)C(=O)N[C@@H](C)C(=O)N[C@@H](CC(C)C)C(=O)N[C@@H](C)C(=O)N[C@@H](CCCCN)C(=O)N[C@@H](CCCCN)C(=O)N[C@H](C(=O)N[C@@H](CC(C)C)C(N)=O)[C@@H](C)CC` [H3], the “Average (percentage cell inhibition), Dmastoparan MDA-MB231 12.5uM” value in experiment [1] stood at 10.8919%. Besides, the “Average (percentage cell inhibition), Mastoparan PBMC” value in experiment [2] was -4.438%.

`CC[C@H](C)[C@H](N)C(=O)N[C@@H](CC(N)=O)C(=O)N[C@@H](CC(C)C)C(=O)N[C@@H](Cc1c[nH]cn1)C(=O)N[C@@H](C)C(=O)N[C@@H](CC(C)C)C(=O)N[C@@H](C)C(=O)N[C@@H](C)C(=O)N[C@@H](CC(C)C)C(=O)N[C@@H](C)C(=O)N[C@@H](CCCCN)C(=O)N[C@@H](CCCCN)C(=O)N[C@H](C(=O)N[C@@H](CC(C)C)C(N)=O)[C@@H](C)CC` [H4]: the “Average (percentage cell inhibition), Dmastoparan MDA-MB231 12.5uM” value in experiment [1] was 21.387%. Also, the “Average (percentage cell inhibition), Mastoparan PBMC” value in experiment [2] is reported as -2.6725%.

On to `CC[C@H](C)[C@H](N)C(=O)N[C@@H](CC(N)=O)C(=O)N[C@@H](CC(C)C)C(=O)N[C@@H](CCCCN)C(=O)N[C@@H](Cc1c[nH]cn1)C(=O)N[C@@H](CC(C)C)C(=O)N[C@@H](C)C(=O)N[C@@H](C)C(=O)N[C@@H](CC(C)C)C(=O)N[C@@H](C)C(=O)N[C@@H](CCCCN)C(=O)N[C@@H](CCCCN)C(=O)N[C@H](C(=O)N[C@@H](CC(C)C)C(N)=O)[C@@H](C)CC` [H5], for which the “Average (percentage cell inhibition), Dmastoparan MDA-MB231 12.5uM” value in experiment [1] is 26.5106%. The “Average (percentage cell inhibition), Mastoparan PBMC” value in experiment [2] is on record as 3.516%.

On to `CC[C@H](C)[C@H](N)C(=O)N[C@@H](CC(N)=O)C(=O)N[C@@H](CC(C)C)C(=O)N[C@@H](CCCCN)C(=O)N[C@@H](C)C(=O)N[C@@H](Cc1c[nH]cn1)C(=O)N[C@@H](C)C(=O)N[C@@H](C)C(=O)N[C@@H](CC(C)C)C(=O)N[C@@H](C)C(=O)N[C@@H](CCCCN)C(=O)N[C@@H](CCCCN)C(=O)N[C@H](C(=O)N[C@@H](CC(C)C)C(N)=O)[C@@H](C)CC` [H6], for which the “Average (percentage cell inhibition), Dmastoparan MDA-MB231 12.5uM” value in experiment [1] is 1.275%. In experiment [2], the “Average (percentage cell inhibition), Mastoparan PBMC” value is -12.6494%.

Take `CC[C@H](C)[C@H](N)C(=O)N[C@@H](CC(N)=O)C(=O)N[C@@H](CC(C)C)C(=O)N[C@@H](CCCCN)C(=O)N[C@@H](C)C(=O)N[C@@H](CC(C)C)C(=O)N[C@@H](Cc1c[nH]cn1)C(=O)N[C@@H](C)C(=O)N[C@@H](CC(C)C)C(=O)N[C@@H](C)C(=O)N[C@@H](CCCCN)C(=O)N[C@@H](CCCCN)C(=O)N[C@H](C(=O)N[C@@H](CC(C)C)C(N)=O)[C@@H](C)CC` [H7]: the “Average (percentage cell inhibition), Dmastoparan MDA-MB231 12.5uM” value in experiment [1] came to 37.3401%. Also, the “Average (percentage cell inhibition), Mastoparan PBMC” value in experiment [2] is given as 4.935%.

Consider `CC[C@H](C)[C@H](N)C(=O)N[C@@H](CC(N)=O)C(=O)N[C@@H](CC(C)C)C(=O)N[C@@H](CCCCN)C(=O)N[C@@H](C)C(=O)N[C@@H](CC(C)C)C(=O)N[C@@H](C)C(=O)N[C@@H](Cc1c[nH]cn1)C(=O)N[C@@H](CC(C)C)C(=O)N[C@@H](C)C(=O)N[C@@H](CCCCN)C(=O)N[C@@H](CCCCN)C(=O)N[C@H](C(=O)N[C@@H](CC(C)C)C(N)=O)[C@@H](C)CC` [H8], for which the “Average (percentage cell inhibition), Dmastoparan MDA-MB231 12.5uM” value in experiment [1] is reported as 53.8201%. Moreover, in experiment [2], the “Average (percentage cell inhibition), Mastoparan PBMC” value is -4.293%.

On to `CC[C@H](C)[C@H](N)C(=O)N[C@@H](CC(N)=O)C(=O)N[C@@H](CC(C)C)C(=O)N[C@@H](CCCCN)C(=O)N[C@@H](C)C(=O)N[C@@H](CC(C)C)C(=O)N[C@@H](C)C(=O)N[C@@H](C)C(=O)N[C@@H](Cc1c[nH]cn1)C(=O)N[C@@H](C)C(=O)N[C@@H](CCCCN)C(=O)N[C@@H](CCCCN)C(=O)N[C@H](C(=O)N[C@@H](CC(C)C)C(N)=O)[C@@H](C)CC` [H9], for which, in experiment [1], the “Average (percentage cell inhibition), Dmastoparan MDA-MB231 12.5uM” value is 18.6976%. Besides, in experiment [2], the “Average (percentage cell inhibition), Mastoparan PBMC” value is on record as -4.349%.

On to `CC[C@H](C)[C@H](N)C(=O)N[C@@H](CC(N)=O)C(=O)N[C@@H](CC(C)C)C(=O)N[C@@H](CCCCN)C(=O)N[C@@H](C)C(=O)N[C@@H](CC(C)C)C(=O)N[C@@H](C)C(=O)N[C@@H](C)C(=O)N[C@@H](CC(C)C)C(=O)N[C@@H](Cc1c[nH]cn1)C(=O)N[C@@H](CCCCN)C(=O)N[C@@H](CCCCN)C(=O)N[C@H](C(=O)N[C@@H](CC(C)C)C(N)=O)[C@@H](C)CC` [H10], for which the “Average (percentage cell inhibition), Dmastoparan MDA-MB231 12.5uM” value in experiment [1] is on record as -5.968%. Besides, the “Average (percentage cell inhibition), Mastoparan PBMC” value in experiment [2] is on record as -10.8779%.

With `CC[C@H](C)[C@H](N)C(=O)N[C@@H](CC(N)=O)C(=O)N[C@@H](CC(C)C)C(=O)N[C@@H](CCCCN)C(=O)N[C@@H](C)C(=O)N[C@@H](CC(C)C)C(=O)N[C@@H](C)C(=O)N[C@@H](C)C(=O)N[C@@H](CC(C)C)C(=O)N[C@@H](C)C(=O)N[C@@H](Cc1c[nH]cn1)C(=O)N[C@@H](CCCCN)C(=O)N[C@H](C(=O)N[C@@H](CC(C)C)C(N)=O)[C@@H](C)CC` [H11], the “Average (percentage cell inhibition), Dmastoparan MDA-MB231 12.5uM” value in experiment [1] worked out at 27.1728%. Besides, in experiment [2], the “Average (percentage cell inhibition), Mastoparan PBMC” value is -0.6179%.

On to `CC[C@H](C)[C@H](N)C(=O)N[C@@H](CC(N)=O)C(=O)N[C@@H](CC(C)C)C(=O)N[C@@H](CCCCN)C(=O)N[C@@H](C)C(=O)N[C@@H](CC(C)C)C(=O)N[C@@H](C)C(=O)N[C@@H](C)C(=O)N[C@@H](CC(C)C)C(=O)N[C@@H](C)C(=O)N[C@@H](CCCCN)C(=O)N[C@@H](Cc1c[nH]cn1)C(=O)N[C@H](C(=O)N[C@@H](CC(C)C)C(N)=O)[C@@H](C)CC` [H12], for which the “Average (percentage cell inhibition), Dmastoparan MDA-MB231 12.5uM” value in experiment [1] is given as 31.16%. Besides, in experiment [2], the “Average (percentage cell inhibition), Mastoparan PBMC” value amounted to 0.5315%.

`CC[C@H](C)[C@H](N)C(=O)N[C@@H](CC(N)=O)C(=O)N[C@@H](CC(C)C)C(=O)N[C@@H](CCCCN)C(=O)N[C@@H](C)C(=O)N[C@@H](CC(C)C)C(=O)N[C@@H](C)C(=O)N[C@@H](C)C(=O)N[C@@H](CC(C)C)C(=O)N[C@@H](C)C(=O)N[C@@H](CCCCN)C(=O)N[C@@H](CCCCN)C(=O)N[C@@H](Cc1c[nH]cn1)C(=O)N[C@@H](CC(C)C)C(N)=O` [H13]: in experiment [1], the “Average (percentage cell inhibition), Dmastoparan MDA-MB231 12.5uM” value is recorded as 24.5783%. In experiment [2], the “Average (percentage cell inhibition), Mastoparan PBMC” value was -0.416%.

With `CC[C@H](C)[C@H](N)C(=O)N[C@@H](CC(N)=O)C(=O)N[C@@H](CC(C)C)C(=O)N[C@@H](CCCCN)C(=O)N[C@@H](C)C(=O)N[C@@H](CC(C)C)C(=O)N[C@@H](C)C(=O)N[C@@H](C)C(=O)N[C@@H](CC(C)C)C(=O)N[C@@H](C)C(=O)N[C@@H](CCCCN)C(=O)N[C@@H](CCCCN)C(=O)N[C@H](C(=O)N[C@@H](Cc1c[nH]cn1)C(N)=O)[C@@H](C)CC` [H14], the “Average (percentage cell inhibition), Dmastoparan MDA-MB231 12.5uM” value in experiment [1] came to 14.7055%. Moreover, in experiment [2], the “Average (percentage cell inhibition), Mastoparan PBMC” value was -11.4515%.

For the molecule `CC[C@H](C)[C@H](N)C(=O)N[C@H](C(=O)N[C@@H](CC(C)C)C(=O)N[C@@H](CCCCN)C(=O)N[C@@H](C)C(=O)N[C@@H](CC(C)C)C(=O)N[C@@H](C)C(=O)N[C@@H](C)C(=O)N[C@@H](CC(C)C)C(=O)N[C@@H](C)C(=O)N[C@@H](CCCCN)C(=O)N[C@@H](CCCCN)C(=O)N[C@H](C(=O)N[C@@H](CC(C)C)C(N)=O)[C@@H](C)CC)[C@@H](C)CC` [I2], the “Average (percentage cell inhibition), Dmastoparan MDA-MB231 12.5uM” value in experiment [1] stood at 82.9517%. In addition, the “Average (percentage cell inhibition), Mastoparan PBMC” value in experiment [2] is given as 42.1735%.

On to `CC[C@H](C)[C@H](N)C(=O)N[C@@H](CC(N)=O)C(=O)N[C@H](C(=O)N[C@@H](CCCCN)C(=O)N[C@@H](C)C(=O)N[C@@H](CC(C)C)C(=O)N[C@@H](C)C(=O)N[C@@H](C)C(=O)N[C@@H](CC(C)C)C(=O)N[C@@H](C)C(=O)N[C@@H](CCCCN)C(=O)N[C@@H](CCCCN)C(=O)N[C@H](C(=O)N[C@@H](CC(C)C)C(N)=O)[C@@H](C)CC)[C@@H](C)CC` [I3], for which, in experiment [1], the “Average (percentage cell inhibition), Dmastoparan MDA-MB231 12.5uM” value is listed as 30.5933%. For the same molecule, the “Average (percentage cell inhibition), Mastoparan PBMC” value in experiment [2] is on record as 14.9456%.

Regarding `CC[C@H](C)[C@H](N)C(=O)N[C@@H](CC(N)=O)C(=O)N[C@@H](CC(C)C)C(=O)N[C@H](C(=O)N[C@@H](C)C(=O)N[C@@H](CC(C)C)C(=O)N[C@@H](C)C(=O)N[C@@H](C)C(=O)N[C@@H](CC(C)C)C(=O)N[C@@H](C)C(=O)N[C@@H](CCCCN)C(=O)N[C@@H](CCCCN)C(=O)N[C@H](C(=O)N[C@@H](CC(C)C)C(N)=O)[C@@H](C)CC)[C@@H](C)CC` [I4], the “Average (percentage cell inhibition), Dmastoparan MDA-MB231 12.5uM” value in experiment [1] was found to be 30.9221%. Besides, in experiment [2], the “Average (percentage cell inhibition), Mastoparan PBMC” value was found to be 5.736%.

Take `CC[C@H](C)[C@H](N)C(=O)N[C@@H](CC(N)=O)C(=O)N[C@@H](CC(C)C)C(=O)N[C@@H](CCCCN)C(=O)N[C@H](C(=O)N[C@@H](CC(C)C)C(=O)N[C@@H](C)C(=O)N[C@@H](C)C(=O)N[C@@H](CC(C)C)C(=O)N[C@@H](C)C(=O)N[C@@H](CCCCN)C(=O)N[C@@H](CCCCN)C(=O)N[C@H](C(=O)N[C@@H](CC(C)C)C(N)=O)[C@@H](C)CC)[C@@H](C)CC` [I5]: the “Average (percentage cell inhibition), Dmastoparan MDA-MB231 12.5uM” value in experiment [1] is 71.3869%. The “Average (percentage cell inhibition), Mastoparan PBMC” value in experiment [2] is recorded as 29.3206%.

For the origin of these results see paper PMC12748989 (Nature Communications, 2025).
